Source: patent US20160310607A1, “CELL TRANSPORT” (CUPID PEPTIDE COMPANY LIMITED, priority 2013, published 2016)
Entries after “also recorded” stand apart in the source; their conditions may differ. No end group written: not given here.

How the values were obtained:
[1] = tested on: Dictyostelium discoideum amoeba cells; test: Permeation of FITC-labelled peptides into cultured Dictyostelium cells (fluorescence microscopy); type: cell-based; conditions: FITC-labelled peptide, 10 micromolar, 1 hour
Protocol: Peptides were labelled with Fluorescein isothiocyanate (FITC) using a FITC labeling kit as per instructions (Pierce, UK). When added to cell cultures the labeled peptides were visualized using a fluorescent microscope by exciting the FITC with a 488 nm spectral line, argon-ion laser (Excitation wavelength of 494 nm and an Emission wavelength of 518 nm).
AX2 wild type Dictyostelium cells were grown on SM agar plates seeded with Aerobacter aerogenes bacteria (also known as Klebsiella aerogenes) as a food source.
Cupid A ([…]) and Cupid B ([…]) were chemically synthesized labelled with FITC at the amino terminal. The peptides were added to cultured eukaryotic cells of Dictyostelium discoideum amoeba for varying amounts of time up to 2 hours. Cells were then washed and prepared for examination under a fluorescent microscope (FIG. 1). The time courses of permeation were compared to the class 3 CPP, the Antennapedia peptide, pANT which was also labelled with FITC in chemical synthesis (FIG. 2).

[2] = tested on: Dictyostelium cAMP-dependent Protein Kinase (DdPKA); test: PKA-dependent aggregation of starved Dictyostelium cultures; type: cell-based, Dictyostelium discoideum; conditions: 10 micromolar peptide
Protocol: FIG. 6. Cupid can transport small molecule cargo into cells. Starved Dictyostelium cultures were treated with no peptide (A), cupid B peptide (B), PKI peptide (C) and Cupid B-PKI peptide (D) and analysed for aggregation.
Upon starvation Dictyostelium initiates a developmental program leading to the aggregation of free-living amoebae. Genetic research has uncovered the crucial role that cyclic adenosine monophosphate (cAMP) plays in orchestrating as an extracellular chemoattractant in the initial aggregation process through Dictyostelium cAMP-dependent Protein Kinase (DdPKA). DdPKA can be inhibited by PKI, a 20 amino acid peptide sequence derived from an inhibitor of PKA, by PKI binding directly to the catalytic unit of PKA.
By creating a Cupid B-PKI fusion protein we aimed to establish that it prevents starving Dictyostelium cells from aggregating in vivo.

Row | Sequence | cell permeation (fluorescence microscopy) [1] | effect on aggregation of starved Dictyostelium cultures [2] | effect on aggregation of starved Dictyostelium cultures ([2]; listed as Cupid-PKI)
1 | HHHHHHRRVQIWFQNKRAKVKRIDTTYADRASGRTGRRNAIHD (also: FITC label, site not given here) [Cupid B-PKI, Cupid B-PKI fusion protein with 6x Histidine, made recombinantly in E. coli; FITC-labelled for microscopy] | cell permeable | completely attenuating | failed to aggregate
2 | RRVQIWFQNKRAKVKR [Cupid B, cell penetrating peptide from the genome of Dictyostelium discoideum] | – | neither the Cupid B peptide nor the PKI peptide alone have any effect on aggregation; also recorded: cells aggregated into tight masses | –
3 | TTYADRASGRTGRRNAND [PKI, reference compound] | – | neither the Cupid B peptide nor the PKI peptide alone have any effect on aggregation; also recorded: cells aggregated into tight masses | –
